In patent US10864196B2, “Modulators of the integrated stress pathway” (Calico Life Sciences LLC, priority 2016, dated 2020):

What follows are compounds tested on HEK293T cells carrying the ATF4 luciferase reporter (assay: ATF4-Luc assay (in vitro model of VWMD)). Settings: Homo sapiens, HEK-293T, 1 μg/mL tunicamycin, 7 hours, One Glo luminescence.
Format: cell-based
Experimental: In order to test exemplary compounds of the invention in a cellular context, a stable VWMD cell line was first constructed. The ATF4 reporter was prepared by fusing the human full-length ATF4 5′-UTR (NCBI Accession No. BC022088.2) in front of the firefly luciferase (FLuc) coding sequence lacking the initiator methionine as described in Sidrauski et al (eLife 2013). The construct was used to produce recombinant retroviruses using standard methods and the resulting viral supernatant was used to transduce HEK293T cells, which were then subsequently selected with puromycin to generate a stable cell line.
HEK293T cells carrying the ATF4 luciferase reporter were plated on polylysine coated 384-well plates (Greiner Bio-one) at 30,000 cells per well. Cells were treated the next day with 1 μg/mL tunicamycin and 200 nM of a compound of Formula (I) for 7 hours. Luminescence was measured using One Glo (Promega) as specified by the manufacturer. Cells were maintained in DMEM with L-glutamine supplemented with 10% heat-inactivated FBS (Gibco) and Antibiotic-Antimycotic solution (Gibco).
Table 2 below summarizes the EC50 data obtained using the ATF4-Luc assay for exemplary compounds of the invention.

**Q.** `O=C(COc1ccc(Cl)c(F)c1)NC12CC(c3nnc(COc4cncc(C(F)(F)F)c4)o3)(C1)C2` [Compound 122, 2-(4-chloro-3-fluorophenoxy)-N-{3-[5-({[5-(trifluoromethyl)pyridin-3-yl]oxy}methyl)-1,3,4-oxadiazol-2-yl]bicyclo[1.1.1]pentan-1-yl}acetamide] was tested. Which EC50 did it give?
**A.** The EC50 was 50 to 250 nM.

**Q.** `O=C(COc1ccc(Cl)c(F)c1)NC12CC(c3nc(COc4ccc(C(F)(F)F)nc4)c[nH]3)(C1)C2` [Compound 169, 2-(4-chloro-3-fluorophenoxy)-N-{3-[4-({[6-(trifluoromethyl)pyridin-3-yl]oxy}methyl)-1H-imidazol-2-yl]bicyclo[1.1.1]pentan-1-yl}acetamide] was tested. Which EC50 did it give?
**A.** The EC50 was over 2000 nM.

**Q.** With `O=C(COc1ccc(Cl)c(Cl)c1)NC12CC(c3nc(COc4ccc(Cl)cc4)no3)(C1)C2` [Compound 105, N-(3-{3-[(4-chlorophenoxy)methyl]-1,2,4-oxadiazol-5-yl}bicyclo[1.1.1]pentan-1-yl)-2-(3,4-dichlorophenoxy)acetamide] as the compound, how does the EC50 read?
**A.** Its EC50 is under 50 nM.

**Q.** How did the EC50 turn out when `Cc1cc(Oc2nnc(C34CC(NC(=O)COc5ccc(Cl)c(F)c5)(C3)C4)o2)cnc1C#N` [Compound 118, 2-(4-chloro-3-fluorophenoxy)-N-(3-{5-[(6-cyano-5-methylpyridin-3-yl)oxy]-1,3,4-oxadiazol-2-yl}bicyclo[1.1.1]pentan-1-yl)acetamide] was run?
**A.** Its EC50 is 250 to 1000 nM.

**Q.** With `O=C(COc1ccc(Cl)c(F)c1)NC12CC(c3nc(COc4ccc(C(F)(F)F)nc4)no3)(C1)C2` [Compound 161, 2-(4-chloro-3-fluorophenoxy)-N-{3-[3-({[6-(trifluoromethyl)pyridin-3-yl]oxy}methyl)-1,2,4-oxadiazol-5-yl]bicyclo[1.1.1]pentan-1-yl}acetamide] as the compound, how does the EC50 read?
**A.** The EC50 was 50 to 250 nM.

**Q.** For `O=C(COc1ccc(Cl)c(F)c1)NC12CC(c3nnc(COc4ccc(C(F)(F)F)nc4)o3)(C1)C2` [Compound 141, 2-(4-chloro-3-fluorophenoxy)-N-{3-[5-({[6-(trifluoromethyl)pyridin-3-yl]oxy}methyl)-1,3,4-oxadiazol-2-yl]bicyclo[1.1.1]pentan-1-yl}acetamide], which EC50 is on record?
**A.** The EC50 was 50 to 250 nM.

**Q.** With `CC(C)Oc1ccc(OCc2nnc(C34CC(NC(=O)COc5ccc(Cl)c(F)c5)(C3)C4)o2)cn1` [Compound 147, 2-(4-chloro-3-fluorophenoxy)-N-(3-{5-[({6-[(propan-2-yl)oxy]pyridin-3-yl}oxy)methyl]-1,3,4-oxadiazol-2-yl}bicyclo[1.1.1]pentan-1-yl)acetamide] as the compound, how does the EC50 read?
**A.** Its EC50 is 1000 to 2000 nM.

**Q.** Which EC50 does the source give for `O=C(COc1ccc(Cl)c(F)c1)NC12CC(c3nnc(COc4cnc5ccoc5c4)o3)(C1)C2` [Compound 152, 2-(4-chloro-3-fluorophenoxy)-N-[3-(5-{[(furo[3,2-b]pyridin-6-yl)oxy]methyl}-1,3,4-oxadiazol-2-yl)bicyclo[1.1.1]pentan-1-yl]acetamide] here?
**A.** Its EC50 is 1000 to 2000 nM.

**Q.** `Cc1ccc(Oc2nnc(C34CC(NC(=O)COc5ccc(Cl)c(F)c5)(C3)C4)o2)cc1` [Compound 123, 2-(4-chloro-3-fluorophenoxy)-N-{3-[5-(4-methylphenoxy)-1,3,4-oxadiazol-2-yl]bicyclo[1.1.1]pentan-1-yl}acetamide] was tested. Which EC50 did it give?
**A.** The EC50 was 50 to 250 nM.

**Q.** With `O=C(COc1ccc(Cl)c(F)c1)NC12CC(c3nc(COc4cncc(C(F)(F)F)c4)no3)(C1)C2` [Compound 159, 2-(4-chloro-3-fluorophenoxy)-N-{3-[3-({[5-(trifluoromethyl)pyridin-3-yl]oxy}methyl)-1,2,4-oxadiazol-5-yl]bicyclo[1.1.1]pentan-1-yl}acetamide] as the compound, how does the EC50 read?
**A.** Its EC50 is 50 to 250 nM.

**Q.** How did the EC50 turn out when `O=C(COc1ccc(Cl)c(F)c1)NC12CC(c3nc(COc4ccc(Cl)cc4)no3)(C1)C2` [Compound 110, 2-(4-chloro-3-fluorophenoxy)-N-(3-{3-[(4-chlorophenoxy)methyl]-1,2,4-oxadiazol-5-yl}bicyclo[1.1.1]pentan-1-yl)acetamide] was run?
**A.** Its EC50 is 50 to 250 nM.

**Q.** Which EC50 does the source give for `Cc1ccc(Oc2nnc(C34CC(NC(=O)COc5ccc(Cl)c(F)c5)(C3)C4)o2)cc1C` [Compound 130, 2-(4-chloro-3-fluorophenoxy)-N-{3-[5-(3,4-dimethylphenoxy)-1,3,4-oxadiazol-2-yl]bicyclo[1.1.1]pentan-1-yl}acetamide] here?
**A.** The EC50 was 50 to 250 nM.

**Q.** With `O=C(COc1ccc(Cl)c(F)c1)NC12CC(c3nnc(COc4cncc(F)c4)o3)(C1)C2` [Compound 140, 2-(4-chloro-3-fluorophenoxy)-N-[3-(5-{[(5-fluoropyridin-3-yl)oxy]methyl}-1,3,4-oxadiazol-2-yl)bicyclo[1.1.1]pentan-1-yl]acetamide] as the compound, how does the EC50 read?
**A.** Its EC50 is 50 to 250 nM.

**Q.** With `O=C(COc1ccc(Cl)c(F)c1)NC12CC(c3nc(COc4ccnc(C(F)(F)F)c4)no3)(C1)C2` [Compound 160, 2-(4-chloro-3-fluorophenoxy)-N-{3-[3-({[2-(trifluoromethyl)pyridin-4-yl]oxy}methyl)-1,2,4-oxadiazol-5-yl]bicyclo[1.1.1]pentan-1-yl}acetamide] as the compound, how does the EC50 read?
**A.** Its EC50 is 50 to 250 nM.

**Q.** Which EC50 does the source give for `COc1ccc(OCc2nnc(C34CC(NC(=O)COc5ccc(Cl)c(F)c5)(C3)C4)o2)c(C)n1` [Compound 151, 2-(4-chloro-3-fluorophenoxy)-N-[3-(5-{[(6-methoxy-2-methylpyridin-3-yl)oxy]methyl}-1,3,4-oxadiazol-2-yl)bicyclo[1.1.1]pentan-1-yl]acetamide] here?
**A.** The EC50 was 1000 to 2000 nM.

**Q.** Which EC50 does the source give for `O=C(COc1ccc(Cl)c(F)c1)NC12CC(c3nnc(COc4ccc(Cl)cc4)[nH]3)(C1)C2` [Compound 132, 2-(4-chloro-3-fluorophenoxy)-N-(3-{5-[(4-chlorophenoxy)methyl]-4H-1,2,4-triazol-3-yl}bicyclo[1.1.1]pentan-1-yl)acetamide] here?
**A.** The EC50 was under 50 nM.

**Q.** Which EC50 does the source give for `O=C(COc1ccc(Cl)c(F)c1)NC12CC(c3nc(COc4cnc(C(F)(F)F)c(Cl)c4)no3)(C1)C2` [Compound 162, 2-(4-chloro-3-fluorophenoxy)-N-{3-[3-({[5-chloro-6-(trifluoromethyl)pyridin-3-yl]oxy}methyl)-1,2,4-oxadiazol-5-yl]bicyclo[1.1.1]pentan-1-yl}acetamide] here?
**A.** Its EC50 is 50 to 250 nM.

**Q.** For `Cc1cc(COCC(=O)NC23CC(c4nc(COc5ccc(Cl)cc5)no4)(C2)C3)no1` [Compound 112, N-(3-{3-[(4-chlorophenoxy)methyl]-1,2,4-oxadiazol-5-yl}bicyclo[1.1.1]pentan-1-yl)-2-[(5-methyl-1,2-oxazol-3-yl)methoxy]acetamide], which EC50 is on record?
**A.** Its EC50 is over 2000 nM.

**Q.** `O=C(COc1ccc(Cl)c(F)c1)NC12CC(c3nnc(Oc4cccc(F)c4)o3)(C1)C2` [Compound 138, 2-(4-chloro-3-fluorophenoxy)-N-{3-[5-(3-fluorophenoxy)-1,3,4-oxadiazol-2-yl]bicyclo[1.1.1]pentan-1-yl}acetamide] was tested. Which EC50 did it give?
**A.** Its EC50 is 50 to 250 nM.

**Q.** How did the EC50 turn out when `N#Cc1ccc(OCc2nnc(C34CC(NC(=O)COc5ccc(Cl)c(F)c5)(C3)C4)o2)cn1` [Compound 157, 2-(4-chloro-3-fluorophenoxy)-N-[3-(5-{[(6-cyanopyridin-3-yl)oxy]methyl}-1,3,4-oxadiazol-2-yl)bicyclo[1.1.1]pentan-1-yl]acetamide] was run?
**A.** Its EC50 is 250 to 1000 nM.

**Q.** `O=C(COc1ccc(C(F)(F)F)nc1)NC12CC(c3nc(COc4ccc(Cl)cc4)no3)(C1)C2` [Compound 114, N-(3-{3-[(4-chlorophenoxy)methyl]-1,2,4-oxadiazol-5-yl}bicyclo[1.1.1]pentan-1-yl)-2-{[6-(trifluoromethyl)pyridin-3-yl]oxy}acetamide] was tested. Which EC50 did it give?
**A.** Its EC50 is 250 to 1000 nM.

**Q.** `O=C(COc1ccc(Cl)c(F)c1)NC12CC(c3nnc(Oc4ccc(C5CC5)nc4)o3)(C1)C2` [Compound 121, 2-(4-chloro-3-fluorophenoxy)-N-(3-{5-[(6-cyclopropylpyridin-3-yl)oxy]-1,3,4-oxadiazol-2-yl}bicyclo[1.1.1]pentan-1-yl)acetamide] was tested. Which EC50 did it give?
**A.** The EC50 was 50 to 250 nM.

**Q.** With `O=C(COc1cccc(Cl)c1)NC12CC(c3nc(COc4ccc(Cl)cc4)no3)(C1)C2` [Compound 106, 2-(3-chlorophenoxy)-N-(3-{3-[(4-chlorophenoxy)methyl]-1,2,4-oxadiazol-5-yl}bicyclo[1.1.1]pentan-1-yl)acetamide] as the compound, how does the EC50 read?
**A.** Its EC50 is 250 to 1000 nM.

**Q.** Which EC50 does the source give for `O=C(COc1ccc(Cl)c(F)c1)NC12CC(c3nnc(Oc4ccccc4F)o3)(C1)C2` [Compound 137, 2-(4-chloro-3-fluorophenoxy)-N-{3-[5-(2-fluorophenoxy)-1,3,4-oxadiazol-2-yl]bicyclo[1.1.1]pentan-1-yl}acetamide] here?
**A.** The EC50 was 250 to 1000 nM.

**Q.** With `O=C(COc1ccc(Cl)cc1)NC12CC(c3nc(COc4ccc(Cl)cc4)no3)(C1)C2` [Compound 101, 2-(4-chlorophenoxy)-N-(3-{3-[(4-chlorophenoxy)methyl]-1,2,4-oxadiazol-5-yl}bicyclo[1.1.1]pentan-1-yl)acetamide] as the compound, how does the EC50 read?
**A.** Its EC50 is under 50 nM.

**Q.** `O=C(COc1ccc(Cl)c(F)c1)NC12CC(c3noc(COc4ccc(Cl)cc4)n3)(C1)C2` [Compound 113, 2-(4-chloro-3-fluorophenoxy)-N-(3-{5-[(4-chlorophenoxy)methyl]-1,2,4-oxadiazol-3-yl}bicyclo[1.1.1]pentan-1-yl)acetamide] was tested. Which EC50 did it give?
**A.** Its EC50 is under 50 nM.

**Q.** For `COc1cccc(Oc2nnc(C34CC(NC(=O)COc5ccc(Cl)c(F)c5)(C3)C4)o2)c1` [Compound 136, 2-(4-chloro-3-fluorophenoxy)-N-{3-[5-(3-methoxyphenoxy)-1,3,4-oxadiazol-2-yl]bicyclo[1.1.1]pentan-1-yl}acetamide], which EC50 is on record?
**A.** The EC50 was 50 to 250 nM.

**Q.** How did the EC50 turn out when `O=C(COc1ccc(Cl)c(F)c1)NC12CC(c3nnc(Oc4ccccc4Cl)o3)(C1)C2` [Compound 127, 2-(4-chloro-3-fluorophenoxy)-N-{3-[5-(2-chlorophenoxy)-1,3,4-oxadiazol-2-yl]bicyclo[1.1.1]pentan-1-yl}acetamide] was run?
**A.** The EC50 was 250 to 1000 nM.
